# Test results published in ChEMBL document CHEMBL4265986, “Structural exploration of cinnamate-based phosphonic acids as inhibitors of bacterial ureases” (Eur J Med Chem, 2018).
# How the values were obtained:
# [1] = system: Proteus mirabilis; assay: Antimicrobial activity against Proteus mirabilis PCM543 assessed as inhibition of microbial proliferation preincubated for 2 hrs by MTT assay; type: functional
# [2] = Inhibition of Proteus mirabilis PCM543 urease using urea as substrate preincubated for 2 hrs by indophenol blue detection based phenol-hypochlorite method
# [3] = Mixed type inhibition of Sporosarcina pasteurii CCM 2056 urease using urea as substrate preincubated for 2 hrs by indophenol blue detection based phenol-hypochlorite method
# [4] = Inhibition of Sporosarcina pasteurii CCM 2056 urease using urea as substrate after 10 mins by indophenol blue detection based phenol-hypochlorite method
# [5] = system: Sporosarcina pasteurii; assay: Slow binding inhibition of Sporosarcina pasteurii CCM 2056 urease assessed as dissociation rate constant using urea as substrate after 120 mins by indophenol blue detection based phenol-hypochlorite method
# [6] = system: Sporosarcina pasteurii; assay: Slow binding inhibition of Sporosarcina pasteurii CCM 2056 urease assessed as residence time using urea as substrate after 120 mins by indophenol blue detection based phenol-hypochlorite method
# [7] = Inhibition of Sporosarcina pasteurii CCM 2056 urease using urea as substrate preincubated for 2 hrs by indophenol blue detection based phenol-hypochlorite method
Structure (SMILES),LC50 [1] [µM],IC50 [2] [µM],Ki [3] [µM],IC50 [4] [µM],K [5] [s⁻¹],TIME [6] [h],IC50 [7] [µM]
COC(=O)/C(=C/c1ccc(Cl)cc1)CCCCP(=O)(O)O,638,27.4,4.71,58.3,0.00206,0.135,6.35
O=C(O)/C(=C/c1ccc(Cl)cc1)CCCP(=O)(O)O,122,18.6,1.43,2.49,,,1.62
COC(=O)/C(=C/c1ccc(OC)cc1)CCCP(=O)(O)O,236,75.1,6.04,35.3,0.00244,0.114,10.8
O=C(O)/C(=C/c1ccc(Cl)cc1)CCCCP(=O)(O)O,435,22.2,1.75,5.83,,,2.34
Cc1ccc(/C=C(\CCCCP(=O)(O)O)C(=O)O)cc1,49.8,52.6,7.21,9.24,,,8.53
COC(=O)/C(=C/c1ccccc1)CCCP(=O)(O)O,556,1590,289,449,,,328
COc1ccc(/C=C(\CCCP(=O)(O)O)C(=O)O)cc1,65.2,39.7,3.4,10,,,4.98
O=C(O)/C(=C/c1ccccc1)CCCCP(=O)(O)O,97.6,32.6,3.51,4.89,,,3.83
COC(=O)/C(=C/c1ccc(OC)cc1)CCCCP(=O)(O)O,160,162,21.4,24.5,,,22.6
O=C(O)/C(=C/c1ccc(F)cc1)CCCCP(=O)(O)O,192,14.1,2.58,9.98,0.00135,0.206,2.91
COc1ccc(/C=C(\CCCCP(=O)(O)O)C(=O)O)cc1,28.6,114,9.31,16.6,,,14.5
COC(=O)/C(=C/c1ccc(F)cc1)CCCP(=O)(O)O,215,735,87.2,221,,,105
O=C(O)/C(=C/c1ccc(F)cc1)CCCP(=O)(O)O,121,38,1.8,4.9,,,3.82
O=C(O)/C(=C/c1ccccc1)CCCP(=O)(O)O,135,11,0.509,3.1,0.000682,0.407,0.743
COC(=O)/C(=C/c1ccc(F)cc1)CCCCP(=O)(O)O,1060,630,116,164,,,130
Cc1ccc(/C=C(\CCCP(=O)(O)O)C(=O)O)cc1,139,156,19.4,30,,,24.6
COC(=O)/C(=C/c1ccc(C)cc1)CCCCP(=O)(O)O,659,1550,219,294,,,261
COC(=O)/C(=C/c1ccccc1)CCCCP(=O)(O)O,469,476,50.5,55,,,54
COC(=O)/C(=C/c1ccc(Cl)cc1)CCCP(=O)(O)O,89.6,521,42.5,109,,,49.8
COC(=O)/C(=C/c1ccc(C)cc1)CCCP(=O)(O)O,292,1430,227,265,,,248
